Experimental findings from US20230337668A1, “COMPOSITION” (GIVAUDAN SA, priority 2020, published 2023) are described below.

The subject of this test is Bacillus subtillis. Briefly: microorganisms counting in inoculated fish matrix (fish model). The settings on record: D14, 25° C., positive control at 0.3%, average of two determinations. The protocol: Fish matrix was made of fish and water (50/50), without preservatives. The matrix was homogenized in a blade mixer grinder and then sterilized at 121° C. for 20 minutes, prior the tests.
Blends were added at 0.5 % into the matrix. Matrices without preservatives (0.5 % of NaCl 0.9%) and matrices with conventional chemical preservatives (0.3% of sodium lactate or potassium nitrite, separately) were used as negative and positive control, respectively.
Each matrix type was portioned into sterile flasks and inoculated with 3 Log CFU/g of different microorganisms, separately. Each flask corresponds to one sample at a given date of analysis.
The inoculated matrices were incubated at 25° C.
The counting of the microorganisms was determined in specific agar medium.

Turning to `O=N[O-].[K+]` [Potassium nitrite], the “Bacillus subtillis spores (Bacillus subtillis totaux - Bacillus subtillis vegetative cells)” value stood at 2.39 Log CFU/g and the “Bacillus subtillis totaux (vegetative cells + spores)” value is given as 2.60 Log CFU/g.
In the same order, the values of `CC(O)C(=O)[O-].[Na+]` (stereo not shown) [Sodium lactate] are 2.35 Log CFU/g and 2.90 Log CFU/g.
